In US20090246145A1, “Imaging Correlates of Neurogenesis With MRI” (priority 2005, published 2009):
Read-outs that look alike come from different tables or passages of the source.

Columns and labels:
[1] = gas anesthesia during MRI, cited from earlier work
[2] = system: adult hippocampal neural progenitor cells; conditions: in vivo; mediated at least in part by NeuroD (Hao 2004; Hsieh 2004); cited from earlier work
[3] = in vivo
Description: Three scout scans are first acquired to position the subsequent T2 weighted images along the standard anatomical orientations in a reproducible manner. T2 weighted axial images are acquired with multislice fast spin echo (FSE) sequence using TR/TEeff=[…]/80 ms, rapid acquisition with relaxation enhancement (RARE) factor=16, FOV=26 mm, acquisition matrix=256×256, slice thickness 0.6 mm, slice gap=0.1 mm and NEX 28. The in-plane resolution is 100 μm. This sequence is repeated 4 times, for a total imaging time of 60 minutes. The first 15 minutes correspond to pre-gadolinium image, after this time period a delay of 1-2 minutes precede the ip gadolinium injection while the mouse is being imaged. The injection lasts 30 seconds. All images are acquired utilizing the same dynamic range, so there is no risk of rescale.
An intravascular contrast agent is required to generate a CBV map of the brain. Different contrast agents have been used for CBV mapping in rodents. Most studies to date have relied on intravenous injections for contrast delivery. Because IV delivery is often problematic in rodents, associated with frequent morbidity and even occasional mortality, it is not ideally suited for longitudinal studies imaging rodents repeatedly over time. […]

Structure (SMILES): FC(F)OC(Cl)C(F)(F)F (stereo not shown) [isoflurane]
- Cerebral hemodynamic change produced by anesthetic [1]: none or minimal cerebral hemodynamic changes
- Cerebral hemodynamic change produced by anesthetic ([1]; listed as Isofluorane): minimal cerebral hemodynamic change

Structure (SMILES): CCCC(CCC)C(=O)O [VPA, 2-propylpentanoic acid]
- Induction of adult hippocampal neural progenitor cells to differentiate into neurons [2]: induce adult hippocampal neural progenitor cells to differentiate predominantly into neurons

Structure (SMILES): CNC(=O)CN(CCN(CCN(CC(=O)[O-])CC(=O)NC)CC(=O)[O-])CC(=O)[O-].[Gd+3] [gadolinium, gadodiamide]
- IP dose above which gadolinium has toxic effects (mainly transient unsteady gait, possibly vertigo) [3]: Above 10 mMol
